Assay results taken from patent US11098055B2, “Ester ACC inhibitors and uses thereof” (Gilead Apollo, LLC, priority 2015, dated 2021).
Converted amounts (≈) assume the structure as drawn. Like-named read-outs stand apart in the source and are kept apart here.

Legend:
Assay in all cases: Growth inhibition assay of fungal pathogens
Format in all cases: cell-based
Botrtyis cinerea (Bc) = conditions: 48 h, read-out: Concentration at 90% Inhibition Bc
Procedure: (§1) Compounds of the present invention were evaluated in a growth inhibition assay to determine the ability to control the growth of fungal pathogens, such as Botrtyis cinerea (Bc), Collectotrichum graminicola (Cg), Diplodia maydis (Dm), Fusarium moniliforme (Fm), Fusarium virguhforme (Fv), Phytophthora capsici (Pc), Rhizoctonia solani (Rs), and Septoria tritici (St). Compounds to be tested were dissolved in DMSO at 2.5 mg/ml to produce compound stock solutions (“stocks”). Stocks were diluted with DMSO by a five-fold dilution in a 96-well stock plate, and two sets of final concentrations of 50, 10, and 2 ppm or 2, 0.4, and 0.08 ppm were obtained in vitro. A set of positive controls was also prepared, with various concentrations of Soraphen (2, 0.4, and 0.08 ppm), Metalaxyl (1.1, 0.22, and 0.04 ppm), and Metconazole (2, 0.4, and 0.08 ppm or 0.2, 0.04, and 0.008 ppm) after the five-fold dilutions. Negative controls on each plate included 2% DMSO, water, and a blank (media+2% DMSO). Fungal spores were isolated from previously sub-cultured plates of Botrtyis cinerea (Bc), Collectotrichum graminicola (Cg), Diplodia maydis (Dm), Fusarium moniliforme (Fm), Fusarium virguliforme (Fv), Phytophthora capsici (Pc), and Septoria tritici (St). The isolated spores were diluted to individual concentrations with a 17% V8 liquid media. For Rhizoctonia solani (Rs) and Pythium irregulare, 1.5 mm mycelial plugs were used in place of spores and ¼ Potato Dextrose Broth (PDB) was used for dilution. The spore concentrations and plug sizes were based on growth curves generated at 48 hours for each pathogen. In a second 96-well plate, the spores or mycelial plugs, media, diluted compound solutions, and controls were combined. Once the compound was added, a true final concentration of compound in each well was measured by an OD600 reading, which adjusted for any compound precipitation that might have occurred in the well. Plate readings were repeated at both 24 and 48 hours. The blank negative control was used as a background subtraction. Additional visual ratings were performed at both 24 and 48 hours for checking on precipitation and confirming efficacy. Visual and OD600 ratings of the compounds at 48 hours were compared to the 2% DMSO negative control, and the percent of pathogen growth inhibition was determined based on those values.

[1] = system: Collectotrichum graminicola (Cg); conditions: 48 h, read-out: Concentration at 90% Inhibition Cg
Procedure: as §1

Diplodia maydis (Dm) = conditions: Stenocarpella maydis, 48 h, read-out: Concentration at 90% Inhibition Dm
Procedure: as §1

[2] = system: Fusarium moniliforme (Fm); conditions: Fusarium verticillioides, 48 h, read-out: Concentration at 90% Inhibition Fm
Procedure: as §1

[3] = system: Fusarium virguliforme (Fv); conditions: 48 h, read-out: Concentration at 90% Inhibition Fv
Procedure: as §1

[4] = system: Phytophthora capsici (Pc); conditions: 48 h, read-out: Concentration at 90% Inhibition Pc
Procedure: as §1

Rhizoctonia solani (Rs) = conditions: 48 h, read-out: Concentration at 90% Inhibition Rs
Procedure: as §1

Septoria tritici (St) = conditions: Zymoseptoria tritici, 48 h, read-out: Concentration at 90% Inhibition St
Procedure: as §1

With CCNC(=O)C(C)(C)n1c(=O)c2c(C)c(C(=O)OCC)sc2n(C[C@H](OC(C)C)c2ccccc2OC)c1=O [Compound I-4, (R)-ethyl 3-(1-(ethylamino)-2-methyl-1-oxopropan-2-yl)-1-(2-isopropoxy-2-(2-methoxyphenyl)ethyl)-5-methyl-2,4-dioxo-1,2,3,4-tetrahydrothieno[2,3-d]pyrimidine-6-carboxylate] the IC90 (Botrtyis cinerea (Bc); Table 4a) was 2 µg/mL (≈ 3.57 µM), the IC90 (Botrtyis cinerea (Bc); Table 4b) was 2 µg/mL (≈ 3.57 µM) and the IC90 ([1]; Table 4a) was at least 50 µg/mL. The IC90 ([1]; Table 4b) was 10 µg/mL (≈ 17.9 µM), the IC90 (Diplodia maydis (Dm); Table 4a) was at least 50 µg/mL and the IC90 (Diplodia maydis (Dm); Table 4b) was 10 µg/mL (≈ 17.9 µM). It also gave an IC90 ([2]; Table 4a) of 0.4 µg/mL (≈ 0.715 µM), an IC90 ([2]; Table 4b) of 0.4 µg/mL (≈ 0.715 µM) and an IC90 ([3]; Table 4a) of 2 µg/mL (≈ 3.57 µM). It also gave an IC90 ([3]; Table 4b) of 2 µg/mL (≈ 3.57 µM), an IC90 ([4]; Table 4a) of at least 50 µg/mL and an IC90 ([4]; Table 4b) of at least 50 µg/mL. The IC90 (Rhizoctonia solani (Rs); Table 4a) was at least 50 µg/mL, the IC90 (Rhizoctonia solani (Rs); Table 4b) was at least 50 µg/mL and the IC90 (Septoria tritici (St); Table 4a) was at least 50 µg/mL. For the same molecule, the IC90 (Septoria tritici (St); Table 4b) was at least 50 µg/mL.
CCOC(=O)c1sc2c(c1C)c(=O)n([C@@H](C)C(N)=O)c(=O)n2C[C@H](OCCC#N)c1cc(F)ccc1OC [Compound I-25, ethyl 3-((S)-1-amino-1-oxopropan-2-yl)-1-((R)-2-(2-cyanoethoxy)-2-(5-fluoro-2-methoxyphenyl)ethyl)-5-methyl-2,4-dioxo-1,2,3,4-tetrahydrothieno[2,3-d]pyrimidine-6-carboxylate] gave an IC90 (Botrtyis cinerea (Bc); Table 4b) of at least 50 µg/mL, an IC90 ([1]; Table 4b) of at least 50 µg/mL and an IC90 (Diplodia maydis (Dm); Table 4b) of at least 50 µg/mL. It also gave an IC90 ([2]; Table 4b) of 10 µg/mL (≈ 18.3 µM), an IC90 ([3]; Table 4b) of at least 50 µg/mL and an IC90 ([4]; Table 4b) of at least 50 µg/mL. The IC90 (Rhizoctonia solani (Rs); Table 4b) was 0.4 µg/mL (≈ 0.732 µM) and the IC90 (Septoria tritici (St); Table 4b) was at least 50 µg/mL.
CCOC(=O)c1sc2c(c1C)c(=O)n(C(C)(C)C(=O)N1CCCC1)c(=O)n2C[C@H](OCCC#N)c1cc(F)ccc1OC [Compound I-16, (R)-ethyl 1-(2-(2-cyanoethoxy)-2-(5-fluoro-2-methoxy-phenyl)ethyl)-5-methyl-3-(2-methyl-1-oxo-1-(pyrrolidin-1-yl)propan-2-yl)-2,4-dioxo-1,2,3,4-tetrahydrothieno[2,3-d]pyrimidine-6-carboxylate] was tested, and the IC90 (Botrtyis cinerea (Bc); Table 4a) was 2 µg/mL (≈ 3.25 µM), the IC90 (Botrtyis cinerea (Bc); Table 4b) was 2 µg/mL (≈ 3.25 µM) and the IC90 ([1]; Table 4a) was 2 µg/mL (≈ 3.25 µM). It also gave an IC90 ([1]; Table 4b) of 2 µg/mL (≈ 3.25 µM), an IC90 (Diplodia maydis (Dm); Table 4a) of 2 µg/mL (≈ 3.25 µM) and an IC90 (Diplodia maydis (Dm); Table 4b) of 2 µg/mL (≈ 3.25 µM). For the same molecule, the IC90 ([2]; Table 4a) was 0.08 µg/mL (≈ 0.13 µM), the IC90 ([2]; Table 4b) was 0.08 µg/mL (≈ 0.13 µM) and the IC90 ([3]; Table 4a) was 2 µg/mL (≈ 3.25 µM). For the same molecule, the IC90 ([3]; Table 4b) was 2 µg/mL (≈ 3.25 µM), the IC90 ([4]; Table 4a) was at least 50 µg/mL and the IC90 ([4]; Table 4b) was at least 50 µg/mL. The IC90 (Rhizoctonia solani (Rs); Table 4a) was 0.4 µg/mL (≈ 0.651 µM), the IC90 (Rhizoctonia solani (Rs); Table 4b) was 0.4 µg/mL (≈ 0.651 µM) and the IC90 (Septoria tritici (St); Table 4a) was at least 50 µg/mL. For the same molecule, the IC90 (Septoria tritici (St); Table 4b) was at least 50 µg/mL.
CCNC(=O)C(C)(C)n1c(=O)c2c(C)c(C(=O)OCC)sc2n(C[C@H](OCCC#N)c2ccccc2OC)c1=O [Compound I-32, ethyl (R)-1-(2-(2-cyanoethoxy)-2-(2-methoxyphenyl)ethyl)-3-(1-(ethylamino)-2-methyl-1-oxopropan-2-yl)-5-methyl-2,4-dioxo-1,2,3,4-tetrahydrothieno[2,3-d]pyrimidine-6-carboxylate] was tested, and the IC90 (Botrtyis cinerea (Bc); Table 4b) was 2 µg/mL (≈ 3.5 µM), the IC90 ([1]; Table 4b) was 2 µg/mL (≈ 3.5 µM) and the IC90 (Diplodia maydis (Dm); Table 4b) was 2 µg/mL (≈ 3.5 µM). For the same molecule, the IC90 ([2]; Table 4b) was 0.08 µg/mL (≈ 0.14 µM), the IC90 ([3]; Table 4b) was 2 µg/mL (≈ 3.5 µM) and the IC90 ([4]; Table 4b) was at least 50 µg/mL. It also gave an IC90 (Rhizoctonia solani (Rs); Table 4b) of 2 µg/mL (≈ 3.5 µM) and an IC90 (Septoria tritici (St); Table 4b) of 10 µg/mL (≈ 17.5 µM).
CCOC(=O)c1sc2c(c1C)c(=O)n(C(C)(C)C(=O)N1CCCC1)c(=O)n2C[C@H](OC1CCOCC1)c1ccccc1OC [Compound I-3, ethyl (R)-1-(2-(2-methoxyphenyl)-2-((tetrahydro-2H-pyran-4-yl)oxy)ethyl)-5-methyl-3-(2-methyl-1-oxo-1-(pyrrolidin-1-yl)propan-2-yl)-2,4-dioxo-1,2,3,4-tetrahydrothieno[2,3-d]pyrimidine-6-carboxylate] was tested, and the IC90 (Botrtyis cinerea (Bc); Table 4a) was 2 µg/mL (≈ 3.19 µM), the IC90 (Botrtyis cinerea (Bc); Table 4b) was 2 µg/mL (≈ 3.19 µM) and the IC90 ([1]; Table 4a) was 0.4 µg/mL (≈ 0.637 µM). It also gave an IC90 ([1]; Table 4b) of 0.4 µg/mL (≈ 0.637 µM), an IC90 (Diplodia maydis (Dm); Table 4a) of 2 µg/mL (≈ 3.19 µM) and an IC90 (Diplodia maydis (Dm); Table 4b) of 2 µg/mL (≈ 3.19 µM). The IC90 ([2]; Table 4a) was 0.08 µg/mL (≈ 0.127 µM), the IC90 ([2]; Table 4b) was 0.08 µg/mL (≈ 0.127 µM) and the IC90 ([3]; Table 4a) was 0.4 µg/mL (≈ 0.637 µM). For the same molecule, the IC90 ([3]; Table 4b) was 0.4 µg/mL (≈ 0.637 µM), the IC90 ([4]; Table 4a) was at least 50 µg/mL and the IC90 ([4]; Table 4b) was at least 50 µg/mL. For the same molecule, the IC90 (Rhizoctonia solani (Rs); Table 4a) was 0.4 µg/mL (≈ 0.637 µM), the IC90 (Rhizoctonia solani (Rs); Table 4b) was 0.4 µg/mL (≈ 0.637 µM) and the IC90 (Septoria tritici (St); Table 4a) was at least 50 µg/mL. It also gave an IC90 (Septoria tritici (St); Table 4b) of at least 50 µg/mL.
